Patent US9422231B2, “Method for inhibiting Trypanosoma cruzi” (HOWARD UNIVERSITY, priority 2011, dated 2016)
“And” between values parts separate entries of the source, which are not always exact repeats. Equal entries are not always repeated. Where two headings read alike, the source gives them in different places. One block for each compound: values may come before it.

Legend:
[1] = system: T. cruzi epimastigotes; settings: Ramos et al., 2009; cited from earlier work
[2] = system: Trypanosoma cruzi epimastigotes (Tulahuen CL98 strain); test: Antitrypanosomal activity against Trypanosoma cruzi epimastigotes (parasite count); assay type: cell-based; settings: for IC50: T. cruzi epimastigotes, 48 h, mean ± S.E. of three experiments, read-out: Antitrypanocidal activity IC50; for Selectivity index greater/better than nifurtimox: in vitro selectivity index relative to nifurtimox; for Selectivity Index (Cytotoxicity/Activity): ratio of IC50 for fibroblast cells/IC50 for parasites
Protocol: (§1) The antitrypanosomal activity against Trypanosoma cruzi was assayed. Trypanosoma cruzi epimastigotes (Tulahuen CL98 strain) were cultured in liver infusion trypose (LIT) medium supplemented with 10% fetal bovine serum (FBS) at 28° C., with an inoculum of 1×10^5 cells/ml. […] All assays were carried out in triplicate. […] The data were subjected to statistical analysis. All experiments were done in triplicate, the means and standard errors (S.E.) were determined. Data were analyzed by one way ANOVA and Tukey's multiple comparison test using GraphPad PRISM software version 5.00. P<0.05 was considered significant.

[3] = molecular target: purified Trypanosoma cruzi tublin (Trypanosoma cruzi, UniProt P08562+Q27352); test: Tubulin assembly assay; assay type: biochemical; settings: purified T. cruzi tubulin 1.2 mg/ml, absorbance at 405 nm, 30° C.; read-out: Tubulin polymerization Inhibition IC50
Protocol: Tubulin assembly assays were conducted to assess tubulin polymerization inhibition. The assays were conducted in a 96-well microplate. Assembly reactions were conducted in a buffer containing 0.1 M PIPES (pH 6.9), 1 mM EGTA, 5 mM Mgcl, 1.2 mg/ml purified Trypanosoma cruzi tublin, at concentrations (0.6-40 μM) of the imido-substituted 1,4-naphthoquinone (IMDNQ 1-IMDNQ 11). Components of the reaction mixtures were added to the microplate and assembly was initiated by the addition of 1 mM GTP. The assembly reactions were assayed photometrically by measuring the absorbance at 405 nm using a microplate reader at 30° C.

[4] = system: Balb/C 3T3 mouse fibroblasts (clone A31); test: MTT cytotoxicity assay on Balb/C 3T3 mouse fibroblasts; assay type: cell-based; settings: for Cytotoxicity compared with nifurtimox: Balb/C 3T3 mouse fibroblast cell line, FIG. 4; for IC50: 48 h
Protocol: (§2) A cytotoxicity assay was performed with representive analogs IMNDQ1 through IMNDQ11. […] MTT is a yellow tetrazolium salt that is reduced to purple formazan crystals by metabolically active cells. Cells (2.2×10^4 cells/well) were seeded in 96-well plate in Improved Minimum Essential Medium (IMEM). […] After 48 h incubation at 37° C. in the presence 5% CO2, the medium was aspirated and the cells washed twice to remove traces of chemical compounds. IMEM without phenol containing 10% (v/v) of 3 mg/ml MTT were added to each well. The plates were incubated for 4 h at 37° C. followed by aspiration. The plates were dried for 1 h in a 37° C. incubator. 100 μl of 0.04 N HCl in isopropanol were added to each well and incubated at room temperature (27° C.) in the dark for 2 h to dissolve the formazan crystals. The absorbance was measured spectrophotometrically at 570 nm in a plate reader. The concentration that reduces cell viability by 50% (IC50) was calculated for each compound. The toxicity for mammalian cells and the activity against T. cruzi were compared by calculating the selectivity index (SI), the ratio of IC50 for fibroblast cells/IC50 for parasites. The data were subjected to statistical analysis. All experiments were done in triplicate, the means and standard errors (S.E.) were determined. Data were analyzed by one way ANOVA and Tukey's multiple comparison test using GraphPad PRISM software version 5.00. P<0.05 was considered significant.

[5] = as above; assay type: cell-based; settings: mouse, Cytotoxicity IC50
Protocol: as §2

[6] = Antitrypanosomal activity against Trypanosoma cruzi epimastigotes (parasite count); assay type: cell-based; settings: mouse (fibroblasts) / Trypanosoma cruzi (parasites); ratio of IC50 for fibroblast cells/IC50 for parasites; read-out: Selectivity Index (Cytotoxicity/Activity)
Protocol: as §1

[7] = Balb/C 3T3 mouse fibroblasts, MTT, mean ± S.E. of three experiments, read-out: Cytotoxicity IC50

Compound: O=C1C(c2ccccc2)=C(c2ccccc2)C(=O)c2ccccc21 [2,3-diphenyl-1,4-naphthoquinone]
LD50 [1]: 2.5 µM

melting point: 294 to 297 °C
Compound: O=C1C(Cl)=C(N(C(=O)c2ccccc2)C(=O)c2ccccc2)C(=O)c2ccccc21 [Example 20, 2-Dibenzoylamino-3-chloro-1,4-naphthoquinone]

melting point: 234 to 238 °C
Compound: O=C1C(Br)=C(N(C(=O)c2ccccc2)C(=O)c2ccccc2)C(=O)c2ccccc21 [Example 21, 2-Dibenzoylamino-3-bromo-1,4-naphthoquinone]

melting point: 204 to 206 °C
Compound: O=C1C(Br)=C(N(C(=O)c2cccc(Cl)c2)C(=O)c2cccc(Cl)c2)C(=O)c2ccccc21 [Example 22, 2-bis-(3-chlorobenzoyl)amino-3-bromo-1,4-naphthoquinone]

melting point: 266 to 269 °C
Compound: O=C1C(Br)=C(N(C(=O)c2ccc(Cl)cc2)C(=O)c2ccc(Cl)cc2)C(=O)c2ccccc21 [Example 23, 2-bis-(4-chlorobenzoyl)amino-3-bromo-1,4-naphthoquinone]

melting point: 257 to 260 °C
Compound: CC(C)(C)c1ccc(C(=O)N(C(=O)c2ccc(C(C)(C)C)cc2)C2=C(Cl)C(=O)c3ccccc3C2=O)cc1 [Example 24, 2-bis-(4-tert-butylbenzoyl)amino-3-chloro-1,4-naphthoquinone]

melting point: 283 to 287 °C
Compound: COc1ccc(C(=O)N(C(=O)c2ccc(OC)cc2)C2=C(Cl)C(=O)c3ccccc3C2=O)cc1 [Example 28, 2-bis-(4-methoxybenzoyl)amino-3-chloro-1,4-naphthoquinone]

Compound: O=C1C(Cl)=C(N2C(=O)CCC2=O)C(=O)c2ccccc21 [IMDNQ1, 2-chloro-3-(N-succinimidyl)-1,4-naphthoquinone]
IC50 [2]: 2.77 µM
Selectivity index greater/better than nifurtimox [2]: at least 300%
Selectivity Index (Cytotoxicity/Activity) [2]: 60.25 and 60.25 ± 2.79
IC50 [3]: 6 µM
Cytotoxicity compared with nifurtimox [4]: far less cytotoxic than nifurtimox
IC50 [4, 7]: > 100 µM and 166 µM

Compound: O=C1C(Cl)=C(N2C(=O)c3ccccc3C2=O)C(=O)c2ccccc21 [IMDNQ2]
IC50 [2]: 4.89 µM and 4.83 µM
Selectivity index greater/better than nifurtimox [2]: at least 300%
Selectivity Index (Cytotoxicity/Activity) [2]: 53.97 and 53.97 ± 5.95
IC50 [3]: 12 µM
Cytotoxicity compared with nifurtimox [4]: far less cytotoxic than nifurtimox
IC50 [4, 7]: 253.7 ± 1.87 µM

Compound: CCCC(=O)N(C(=O)CCC)C1=C(Cl)C(=O)c2ccccc2C1=O [IMDNQ3]
IC50 [2]: 0.7 µM
Selectivity Index (Cytotoxicity/Activity) [2]: 31.83 and 31.83 ± 3.17
IC50 [3]: 3.2 µM
IC50 [4, 7]: 21.7 µM

Compound: O=C1C(Cl)=C(N2C(=O)COCC2=O)C(=O)c2ccccc21 [IMDNQ4]
IC50 [2]: 4.93 ± 0.64 µM
Selectivity Index (Cytotoxicity/Activity) [2]: 7.43 ± 0.97
IC50 [4, 7]: 35.5 ± 1.76 µM

melting point: 170 to 172 °C
Compound: O=C1C(Br)=C(N(C(=O)c2ccc(F)cc2)C(=O)c2ccc(F)cc2)C(=O)c2ccccc21 [IMDNQ5, N-(3-Bromo-1,4-dioxo-1,4-dihydronaphthalen-2-yl)-4-fluoro-N-(4-fluorobenzoyl)-benzamide]
IC50 [2]: 2.27 ± 0.15 µM
Selectivity Index (Cytotoxicity/Activity) [2]: 5.70 ± 0.06
IC50 at 48 h [5]: 12.8 µM

melting point: 232 to 234 °C
Compound: O=C1C(Br)=C(N(C(=O)c2ccccc2Cl)C(=O)c2ccccc2Cl)C(=O)c2ccccc21 [IMDNQ6, N-(3-Bromo-1,4-dioxo-1,4-dihydronaphthalen-2-yl)-2-chloro-N-(2-chlorobenzoyl)-benzamide]
IC50 ([2]; Trypanosoma cruzi, TULAHUEN): 1.51 µM
Selectivity Index (Cytotoxicity/Activity) [2]: 9.43 ± 0.94
IC50 at 48 h [5]: 14.2 µM

melting point: 212 to 213 °C
Compound: O=C1C(Cl)=C(N(C(=O)c2ccc(Cl)cc2)C(=O)c2ccc(Cl)cc2)C(=O)c2ccccc21 [IMDNQ7, 4-Chloro-N-(4-chlorobenzoyl)-N-(3-chloro-1,4-dioxo-1,4-dihydronaphthalen-2-yl)-benzamide]
IC50 ([2]; Trypanosoma cruzi, TULAHUEN): 1.27 ± 0.15 µM
Selectivity Index (Cytotoxicity/Activity) [2]: 14.23 ± 1.62
IC50 ([4]; mouse): 17.8 ± 2.21 µM

melting point: 217 to 218 °C
Compound: O=C1C(Cl)=C(N(C(=O)c2ccccc2Cl)C(=O)c2ccccc2Cl)C(=O)c2ccccc21 [IMDNQ8, 2-Chloro-N-(2-chlorobenzoyl)-N-(3-chloro-1,4-dioxo-1,4-dihydronaphthalen-2-yl)-benzamide]
IC50 [2]: 2.67 ± 0.33 µM
Selectivity Index (Cytotoxicity/Activity) [2]: 10.17 ± 0.97
IC50 at 48 h [5]: 26.5 µM

melting point: 284 to 286 °C
Compound: O=C1C(Cl)=C(N(C(=O)c2ccc(F)cc2)C(=O)c2ccc(F)cc2)C(=O)c2ccccc21 [IMDNQ9, N-(3-Chloro-1,4-dioxo-1,4-dihydronaphthalen-2-yl)-4-fluoro-N-(4-fluorobenzoyl)-benzamide]
IC50 [2]: 4.07 ± 0.23 µM
Selectivity Index (Cytotoxicity/Activity) [2]: 5.43 ± 0.69
IC50 at 48 h [5]: 21.8 µM

Compound: O=C1C(Cl)=C(N(C(=O)c2cccc(Cl)c2)C(=O)c2cccc(Cl)c2)C(=O)c2ccccc21 [IMDNQ10, 3-Chloro-N-(3-chlorobenzoyl)-N-(3-chloro-1,4-dioxo-1,4-dihydronaphthalen-2-yl)-benzamide]
selectivity ratio at 48 h [6]: 275
IC50 ([2]; Trypanosoma cruzi, TULAHUEN): 2.23 µM
Selectivity index, times better than nifurtimox ([2]; calculated selectivity index relative to nifurtimox): about 25 times
Selectivity index greater/better than nifurtimox [2]: at least 300%
IC50 [3]: 8 µM
melting point: 258 to 260 °C
IC50 ([4]; mouse): 611 ± 10.3 µM

Compound: O=C1C(Cl)=C(N(C(=O)CCl)C(=O)CCl)C(=O)c2ccccc21 [IMDNQ11]
IC50 [2]: 6.1 ± 0.38 µM
Selectivity Index (Cytotoxicity/Activity) [2]: 3.20 ± 0.44
IC50 [3]: > 40 µM
IC50 [4, 7]: 19.7 ± 3.71 µM

Compound: CC1CS(=O)(=O)CCN1/N=C/c1ccc([N+](=O)[O-])o1 (stereo not shown) [Nifurtimox, reference compound]
IC50 [2]: 10.7 µM
